Source: PubChem BioAssay AID1963829 (Molecular Pharmacology Branch, DTP, NCI, 2024)
“And” between values parts separate entries of the source, which are not always exact repeats. Identical values can stand only once.

Test system: 935938-334-R-J1-PDC complex spheroid viability
Assay: Anticancer human tumor 935938-334-R-J1-PDC patient-derived small intestine adenocarcinoma cell line growth inhibition [POLQ]
Settings: for viability, T/C: stronger effect = lower value; for IC50: curve of compound
Experimental: Multicellular complex tumor spheroid response to Polymerase (POL) inhibitors (novobiocin, ART-558, RP6685) in combination with a variety of drugs and investigational agents in selected tumor cell lines
The POL inhibitors (novobiocin, ART-558, and RP6685) were evaluated both individually and in combination with standard of care and investigational anticancer small molecules within a complex spheroid model of solid tumors. . Complex spheroids include a stromal component modeled by human endothelial cells (HUVEC) and fibroblasts modeled by human mesenchymal stem cells (MSCs). The concentration ranges selected for each drug and investigational agent were based upon clinically achievable concentrations if the clinical Cmax of the agent was known.
Compounds. The drugs and investigational agents: novobiocin (NSC847541), ART-558 (NSC835418), RP-6685 (NSC848927), peposertib (NSC802822), ceralasertib (NSC780249), elimusertib (NSC800525), camonsertib (NSC841442), AZD-1390 (NSC803789), olaparib (NSC753686), talazoparib (NSC767125), rucaparib (NSC756644), sotorasib (NSC818433), MRTX-1133 (NSC836407), SN-38 (NSC673596), topotecan (NSC609699), epotoside (NSC141540), doxorubicin (NSC123127), gemcitabine (NSC613327), 5-fluorouracil (NSC19893), paclitaxel (NSC125973), vemurafenib (NSC761431), MSA-2 (NSC828583), SN-011 (NSC837082), adavosertib (NSC754352), prexasertib (NSC758257), carboplatin (NSC241240) and oxaliplatin (NSC266046), were obtained from the National Cancer Institute (NCI) Developmental Therapeutics Program Chemical Repository (21). The FDA-approved anticancer drug set is available from the Developmental Therapeutics Program at https://dtp.cancer.gov/organization/dscb/obtaining/. […] The stock solutions were prepared in dimethyl sulfoxide (DMSO, Sigma-Aldrich, St. Louis, MO, cat. D2650), except for the platinum compounds which were prepared in saline (Quality Biological, Gaithersburg, MD, cat. 114-055-101), at 800-fold the tested concentration and stored at -70 degrees C prior to their use. All drugs and investigational agents were tested over a range starting from a high concentration at or near the clinical Cmax and decreasing in half-log increments. If the clinical Cmax for an agent had not been determined, the highest concentration tested was 10 microM, except for SN-38, which was tested at a high concentration of 1 microM.
Cell Culture. All cells were maintained in an incubator at 37 degrees C and 5% CO2 with 95% humidity. The PDC lines were cultured according to standard operating procedures established by the NCI PDMR (https://pdmr.cancer.gov). Table 3 of the manuscript, lists the cell lines along with the number of the three cell types plated to form the mct-spheroids and media for tumor cell growth. After thawing, all PDC lines, except 997537-175-T-J1-PDC and 415267-285-R-J2-PDC, were cultured in Matrigel-coated flasks prepared with a working solution of 1X Ham's F-12 nutrient mix, without supplementation (Thermo Fisher Scientific, cat. 11765054), 100 U/mL penicillin-streptomycin (Thermo Fisher Scientific, cat. 15140122), and 2.5% Matrigel (Corning Inc., Corning, NY, cat. 354248) for the first three passages. The two PDC lines 997537-175-T-J1-PDC and 415267-285-R-J2-PDC were cultured on uncoated flasks. The 857933-349-R-J2-PDC line was cultured in 6C/Colon 1B media containing advanced DMEM/F-12 (Thermo Fisher Scientific, cat. 12634028), 10 mM HEPES (Thermo Fisher Scientific, cat. 15630080), 1X GlutaMAX supplement (Thermo Fisher Scientific, cat. 35050061), 0.1 mg/mL primocin (InvivoGen, San Diego, CA, cat. ant-pm-2), 10% defined fetal bovine serum, heat inactivated (HyClone Laboratories Inc., Logan, UT, cat. SH30070.03HI), 50% L-WRN conditioned media (ATCC, cat. CRL-3276), 1.25 mM N-Acetyl-L-cysteine (Sigma-Aldrich, cat. A9165), 10 mM nicotinamide (Sigma-Aldrich, cat. N0636), 1X B-27 supplement (Thermo Fisher Scientific, cat. 17504044), 1X N-2 supplement (Thermo Fisher Scientific, cat. […]
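Note: spheroids exposed to drugs for seven days before viability read.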
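Throughout, for viability, T/C: 100% = DMSO vehicle control wells.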

CCc1cc2c(N3CCc4c(cc(Cn5ccnc5)cc4-c4cn(C)nc4C(F)(F)F)C3=O)ccnc2c(OC)n1
viability, T/C (compound 0.0316 µM): 78.9% and 69.7% and 64.6%
viability, T/C (compound 0.1 µM): 56.2% and 71.7% and 57.9%
viability, T/C (compound 0.316 µM): 70.9% and 68.9% and 69.7%
viability, T/C (compound 1 µM): 61.2% and 62% and 60.9%
viability, T/C (compound 3.16 µM): 64.3% and 76.9% and 69.6%
viability, T/C (compound 10 µM): 57.7% and 50.2% and 58.4%
IC50: > 10000 nM

CC1COCCN1c1cc(C2(O)CC3CCC(C2)O3)c2cnn(-c3ccn[nH]3)c2n1 (stereo not given)
viability, T/C (compound 0.0316 µM): 84.1% and 74.7% and 60.4%
viability, T/C (compound 0.1 µM): 62.5% and 69.8% and 72.1%
viability, T/C (compound 0.316 µM): 45.6% and 32.8% and 34.3%
viability, T/C (compound 1 µM): 24.3% and 23.7% and 22.5%
viability, T/C (compound 3.16 µM): 15% and 14% and 18.6%
viability, T/C (compound 10 µM): 12% and 10.3% (2×)
IC50: 216 nM and 187 nM and 180 nM

O=C(Nc1ccc(O)c(NS(=O)(=O)c2ccc(F)cc2)c1)c1ccc(-c2ccccc2)cc1
viability, T/C (compound 0.0316 µM): 105% and 85.8% and 92.8%
viability, T/C (compound 0.1 µM): 90.5% and 105% and 85.8%
viability, T/C (compound 0.316 µM): 76.6% and 90.5% and 111%
viability, T/C (compound 1 µM): 80.5% and 76.2% and 111%
viability, T/C (compound 3.16 µM): 103% and 84.1% and 91.1%
viability, T/C (compound 10 µM): 93.4% and 63.7% and 69.9%
IC50: > 10000 nM

CNCc1ccc(-c2[nH]c3cc(F)cc4c3c2CCNC4=O)cc1
viability, T/C (compound 0.0316 µM): 114% and 107% and 98.2%
viability, T/C (compound 0.1 µM): 119% and 78.9% and 107%
viability, T/C (compound 0.316 µM): 92.8% and 87.7% and 94.1%
viability, T/C (compound 1 µM): 88% and 96% and 108%
viability, T/C (compound 3.16 µM): 94% and 139% and 114%
viability, T/C (compound 10 µM): 109% and 116% and 90.9%
IC50: > 10000 nM

Cn1ncnc1[C@H]1c2n[nH]c(=O)c3cc(F)cc(c23)N[C@@H]1c1ccc(F)cc1
viability, T/C (compound 0.000316 µM): 87.9% and 80.8% and 110%
viability, T/C (compound 0.001 µM): 83.2% and 90.4% and 112%
viability, T/C (compound 0.00316 µM): 82.5% and 83.7% and 85.8%
viability, T/C (compound 0.01 µM): 93.8% and 99.9% and 105%
viability, T/C (compound 0.0316 µM): 113% and 94.7% and 116%
viability, T/C (compound 0.1 µM): 99.4% and 96.1% and 76.1%
IC50: > 100 nM

COc1cc(C2c3cc4c(cc3C(OC3OC5COC(C)OC5C(O)C3O)C3COC(=O)C23)OCO4)cc(OC)c1O (stereo not given)
viability, T/C (compound 0.0316 µM): 108% and 93.2% and 99.1%
viability, T/C (compound 0.1 µM): 103% and 85.7% and 106%
viability, T/C (compound 0.316 µM): 61.8% and 90.5% and 72.3%
viability, T/C (compound 1 µM): 49.7% and 44.2% and 35.8%
viability, T/C (compound 3.16 µM): 28.1% and 26.1% and 27.6%
viability, T/C (compound 10 µM): 31.2% and 30.3% and 30.4%
IC50: 707 nM and 864 nM and 621 nM

COc1ccc([C@@H](O)c2cc(-c3ncnc4cc(N5CCOCC5)ccc34)c(F)cc2Cl)nn1
viability, T/C (compound 0.0316 µM): 92.9% and 78.8% and 78%
viability, T/C (compound 0.1 µM): 81.3% and 85.4% and 74.1%
viability, T/C (compound 0.316 µM): 104% and 91.9% and 83.3%
viability, T/C (compound 1 µM): 67.2% and 91.9% and 95.6%
viability, T/C (compound 3.16 µM): 78% and 69.2% and 62.2%
viability, T/C (compound 10 µM): 36.1% and 31.2% and 33.4%
IC50: 6470 nM and 5660 nM and 5150 nM

CCCS(=O)(=O)Nc1ccc(F)c(C(=O)c2c[nH]c3ncc(-c4ccc(Cl)cc4)cc23)c1F
viability, T/C (compound 0.0316 µM): 113% and 92.8% and 116%
viability, T/C (compound 0.1 µM): 119% and 111% and 89.6%
viability, T/C (compound 0.316 µM): 115% and 103% and 106%
viability, T/C (compound 1 µM): 108% and 102% and 121%
viability, T/C (compound 3.16 µM): 96.3% and 131% and 129%
viability, T/C (compound 10 µM): 46.3% and 53.5% and 37.2%
IC50: 9270 nM and > 10000 nM and 8230 nM

C=CCn1c(=O)c2cnc(Nc3ccc(N4CCN(C)CC4)cc3)nc2n1-c1cccc(C(C)(C)O)n1
viability, T/C (compound 0.00316 µM): 104% and 93.2% and 96.4%
viability, T/C (compound 0.01 µM): 122% and 109% and 68.7%
viability, T/C (compound 0.0316 µM): 98.9% and 94.2% and 106%
viability, T/C (compound 0.1 µM): 87.7% and 94.9% and 106%
viability, T/C (compound 0.316 µM): 90.8% and 93.2% and 71.3%
viability, T/C (compound 1 µM): 33.3% and 32.5% and 27.3%
IC50: 694 nM and 719 nM and 552 nM

O=c1[nH]cc(F)c(=O)[nH]1
viability, T/C (compound 0.0316 µM): 103% and 81.1% and 79.2%
viability, T/C (compound 0.1 µM): 114% and 90.2% and 81.6%
viability, T/C (compound 0.316 µM): 113% and 80.6% and 77.4%
viability, T/C (compound 1 µM): 90.5% and 72.5% and 74.6%
viability, T/C (compound 3.16 µM): 75.5% and 63.4% and 54.9%
viability, T/C (compound 10 µM): 59% and 54.3% and 47.8%
IC50: > 10000 nM and 7010 nM
